From patent US6982348B2, “Aminoethanol derivatives” (Takeda Pharmaceutical Company Limited, priority 2001, dated 2006) come the findings set out here.

For orientation: melting point means the temperature, or range, at which the solid turns liquid.

`COc1ccc(-c2ccc([C@H](O)[C@@H](Cc3cccc(OC(F)(F)C(F)F)c3)NC(=O)c3cccc4c3C=CCCC4)cc2)cc1` (racemic) [Example 297, N-[(1RS,2SR)-2-hydroxy-2-(4′-methoxy[1,1′-biphenyl]-4-yl)-1-[3-(1,1,2,2-tetrafluoroethoxy)benzyl]ethyl]-6,7-dihydro-5H-benzo[a]cycloheptene-1-carboxamide] showed a melting point of 162 to 163 °C.

`O=C(N[C@H](Cc1ccc(C(F)(F)F)cc1)[C@@H](O)c1ccc(F)cc1)c1cc([N+](=O)[O-])cc2ccccc12` (racemic) [Example 102, N-[(1RS,2SR)-2-(4-fluorophenyl)-2-hydroxy-1-[4-(trifluoromethyl)benzyl]ethyl]-3-nitronaphthalene-1-carboxamide] gave a melting point of 231 to 232 °C. Take `O=C(N[C@H](Cc1cccc(CC(F)(F)C(F)F)c1)[C@@H](O)c1ccc(F)cc1)c1cccc2c(Cl)cccc12` (racemic) [Example 340, 5-chloro-N-[(1RS,2SR)-2-(4-fluorophenyl)-2-hydroxy-1-[3-(2,2,3,3-tetrafluoropropyl)benzyl]ethyl]naphthalene-1-carboxamide]: the melting point was in the range of 174 to 175 °C. To `O=C(N[C@H](Cc1ccc(C(F)(F)F)cc1)[C@@H](O)c1ccc(F)cc1)c1cccc2c1C(=O)c1ccccc1-2` (racemic) [Example 85, N-((1RS,2SR)-2-(4-fluorophenyl)-2-hydroxy-1-((4-(trifluoromethyl)phenyl)methyl)ethyl)-9-oxo-9H-fluorene-1-carboxamide] belongs 185 to 186 °C; to `O=C(CCCc1ccccc1)N[C@H](Cc1ccc(C(F)(F)F)cc1)[C@@H](O)c1ccc(F)cc1` (racemic) [Example 47, N-((1RS,2SR)-2-(4-fluorophenyl)-2-hydroxy-1-((4-(trifluoromethyl)phenyl)methyl)ethyl)-4-phenylbutyramide], 150 to 151 °C; to `O=C(N[C@H](Cc1cccc(OC(F)(F)C(F)F)c1)[C@@H](O)c1ccc(Oc2ccccc2)cn1)c1ccc(F)c2ccccc12` (racemic) [Example 256, 4-fluoro-N-{(1RS,2RS)-2-hydroxy-2-(5-phenoxypyridin-2-yl)-1-[3-(1,1,2,2-tetrafluoroethoxy)benzyl]ethyl}-1-naphthamide], 146 to 147 °C. To `O=C(N[C@H](Cc1ccc(CC(F)(F)C(F)(F)F)cc1)[C@@H](O)c1cccc(Cl)c1)c1cccc2c1C=CCCC2` (racemic) [Example 374, N-[(1RS,2SR)-1-[4-(2,2,3,3,3-pentafluoropropyl)benzyl]-2-(3-chlorophenyl)-2-hydroxyethyl]-6,7-dihydro-5H-benzo[a]cycloheptene-1-carboxamide] belongs 176 to 177 °C; to `O=C(N[C@H](Cc1ccc(C(F)(F)F)cc1)[C@@H](O)c1ccc(F)cc1)c1cccc(Oc2ccccc2)c1` (racemic) [Example 107, N-((1RS,2SR)-2-(4-fluorophenyl)-2-hydroxy-1-((4-(trifluoromethyl)phenyl)methyl)ethyl)-3-phenoxybenzamide], 144 to 145 °C; to `O=C(N[C@H](Cc1ccc(C(F)(F)F)cc1)[C@@H](O)c1ccc(F)cc1)c1cccc2cccc(Br)c12` (racemic) [Example 87, 8-bromo-N-((1RS,2SR)-2-(4-fluorophenyl)-2-hydroxy-1-((4-(trifluoromethyl)phenyl)methyl)ethyl)-1-naphthalenecarboxamide], 191 to 192 °C. To `O=C(CCCc1ccccc1)N[C@H](Cc1ccc(F)cc1)[C@@H](O)c1ccc(F)cc1` (racemic) [Example 147, N-((1RS,2SR)-2-(4-fluorophenyl)-1-((4-fluorophenyl)methyl)-2-hydroxyethyl)-4-phenylbutyramide] belongs 147 to 148 °C.

`O=C(N[C@H](Cc1ccc(F)cc1)[C@@H](O)c1ccc(C(F)(F)F)cc1)c1cccc2ccccc12` (racemic) [Example 212, N-((1RS,2SR)-1-((4-fluorophenyl)methyl)-2-hydroxy-2-(4-(trifluoromethyl)phenyl)ethyl)-1-naphthalenecarboxamide] had a melting point of 207 to 208 °C. Then `O=C(N[C@H](Cc1cccc(OC(F)(F)C(F)F)c1)[C@@H](O)c1ccc(OCCCOc2ccccc2)cc1)c1cccc2c1C=CCCC2` (racemic) [Example 247, N-{(1RS,2SR)-2-hydroxy-2-[4-(3-phenoxypropoxy)phenyl]-1-[3-(1,1,2,2-tetrafluoroethoxy)benzyl]ethyl}-6,7-dihydro-5H-benzo[a][7]annulene-1-carboxamide], with 142 to 143 °C; and `CN(C)C(=O)c1ccc([C@H](O)[C@@H](Cc2cccc(OC(F)(F)C(F)F)c2)NC(=O)c2cccc3c2C=CCCC3)cc1` (racemic) [Example 312, N-[(1RS,2SR)-2-[4-[(dimethylamino)carbonyl]phenyl]-2-hydroxy-1-[3-(1,1,2,2-tetrafluoroethoxy)benzyl]ethyl]-6,7-dihydro-5H-benzo[a]cycloheptene-1-carboxamide], with 165 to 166 °C. To `CC(C)Oc1ccc([C@H](O)[C@@H](Cc2cccc(OC(F)(F)C(F)F)c2)NC(=O)c2cccc3c2C=CCCC3)cc1` (racemic) [Example 243, N-{(1RS,2SR)-2-hydroxy-2-(4-isopropoxyphenyl)-1-[3-(1,1,2,2-tetrafluoroethoxy)benzyl]ethyl}-6,7-dihydro-5H-benzo[a][7]annulene-1-carboxamide] belongs 134 to 135 °C; to `O=C(N[C@H](Cc1ccc(OC(F)(F)C(F)F)cc1)[C@@H](O)c1ccc(F)cc1)c1ccc(F)c2ccccc12` (racemic) [Example 131, 4-fluoro-N-[(1RS,2SR)-2-(4-fluorophenyl)-2-hydroxy-1-[4-(1,1,2,2-tetrafluoroethoxy)benzyl]ethyl]naphthalene-1-carboxamide], 192 to 193 °C. `O=C(N[C@H](Cc1ccc(C(F)(F)F)cc1)[C@@H](O)c1ccc(F)cc1)c1cccc2c1OCCCO2` (racemic) [Example 113, N-[(1RS,2SR)-2-(4-fluorophenyl)-2-hydroxy-1-[4-(trifluoromethyl)benzyl]ethyl]-3,4-dihydro-2H-1,5-benzodioxepine-6-carboxamide] displayed a melting point of 155 to 156 °C. Then `O=C(N[C@H](Cc1cccc(OC(F)(F)C(F)F)c1)[C@@H](O)c1ccc(CO)cc1)c1cccc2c1C=CCCC2` (racemic) [Example 327, N-[(1RS,2SR)-2-hydroxy-2-[4-(hydroxymethyl)phenyl]-1-[3-(1,1,2,2-tetrafluoroethoxy)benzyl]ethyl]-6,7-dihydro-5H-benzo[a]cycloheptene-1-carboxamide], with 151 to 152 °C; and `CC(C)(C)c1ccc(C[C@@H](NC(=O)c2cccc3c2C=CCCC3)[C@@H](O)c2cccc(Cl)c2)cc1` (racemic) [Example 272, N-[(1RS,2SR)-1-(4-tert-butylbenzyl)-2-(3-chlorophenyl)-2-hydroxyethyl]-6,7-dihydro-5H-benzo[a][7]annulene-1-carboxamide], with 142 to 143 °C; and `O=C(N[C@H](Cc1cccc(OC(F)(F)C(F)F)c1)[C@@H](O)c1ccc(Br)cc1)c1cccc2c1C=CCCC2` (racemic) [Example 290, N-[(1RS,2SR)-2-(4-bromophenyl)-2-hydroxy-1-[3-(1,1,2,2-tetrafluoroethoxy)benzyl]ethyl]-6,7-dihydro-5H-benzo[a]cycloheptene-1-carboxamide], with 184 to 185 °C. In turn, `O=C(N[C@H](Cc1cccc(OC(F)(F)C(F)F)c1)[C@@H](O)c1ccc(Oc2ccccn2)cc1)c1cccc2c1C=CCCC2` (racemic) [Example 258, N-{(1RS,2SR)-2-hydroxy-2-[4-(pyridin-2-yloxy)phenyl]-1-[3-(1,1,2,2-tetrafluoroethoxy)benzyl]ethyl}-6,7-dihydro-5H-benzo[a][7]annulene-1-carboxamide] came in with a melting point of 160 to 161 °C. To `O=C(N[C@H](Cc1ccccc1C(F)(F)F)[C@@H](O)c1ccc(F)cc1)C1CCCCC1` (racemic) [Example 142, N-((1RS,2SR)-2-(4-fluorophenyl)-2-hydroxy-1-((2-(trifluoromethyl)phenyl)methyl)ethyl)cyclohexanecarboxamide] belongs 216 to 217 °C. Molecule `O=C(N[C@H](Cc1cccc(OC(F)(F)C(F)F)c1)[C@@H](O)c1cccc(F)c1)c1cccc2c1C=CCCC2` (racemic) [Example 235, N-((1RS,2SR)-2-(3-fluorophenyl)-2-hydroxy-1-[3-(1,1,2,2-tetrafluoroethoxy)benzyl]ethyl)-6,7-dihydro-5H-benzo[a][7]annulene-1-carboxamide] gave a melting point of 150 to 155 °C. Turning to `Cc1cc(C)c(C(=O)NC(Cc2ccc(C(F)(F)F)cc2)C(O)c2ccc(F)cc2)c(C)c1` (racemic) [Example 17, N-[2-(4-fluorophenyl)-2-hydroxy-1-[[4-(trifluoromethyl)phenyl]methyl]ethyl]-2,4,6-trimethylbenzamide], the melting point was 141 to 143 °C. `O=C(N[C@H](Cc1ccc(C(F)(F)F)cc1)[C@@H](O)c1ccc(F)cc1)OCc1ccccc1` (racemic) [Example 114, benzyl N-[(1RS,2SR)-2-(4-fluorophenyl)-2-hydroxy-1-[4-(trifluoromethyl)benzyl]ethyl]carbamate] had a melting point of 151 to 152 °C. Then `COc1cccc([C@H](O)[C@@H](Cc2cccc(OC(F)(F)C(F)F)c2)NC(=O)c2cccc3c2C=CCCC3)c1` (racemic) [Example 253, N-{(1RS,2SR)-2-hydroxy-2-(3-methoxyphenyl)-1-[3-(1,1,2,2-tetrafluoroethoxy)benzyl]ethyl}-6,7-dihydro-5H-benzo[a][7]annulene-1-carboxamide], with 155 to 156 °C; and `CC(C)(C)OC(=O)N[C@H](Cc1cc(OC(F)(F)C(F)F)no1)[C@@H](O)c1ccc(F)cc1` (racemic) [Example 319, tert-butyl N-[(1RS,2SR)-2-(4-fluorophenyl)-2-hydroxy-1-[[3-(1,1,2,2-tetrafluoroethoxy)isooxazol-5-yl]methyl]ethyl]carbamate], with 114 to 115 °C.
